Data as given in ChEMBL document CHEMBL1129930, “Analogues of methotrexate in rheumatoid arthritis. 2. Effects of 5-deazaaminopterin, 5,10-dideazaaminopterin, and analogues on type II collagen-induced arthritis in mice” (J Med Chem, 1997).

Tests used:
Mus musculus [1] = assay: Incidence of disease (mouse type II collagen) was scored as the percentage of animals within each experimental group that exhibited joint or limb inflammation on day 30 at intraperitoneal dose of 1.5 mg/kg; type: functional
Mus musculus [2] = assay: Tested for antiinflammatory activity on mouse type II collagen arthritis as Paw swelling of all animals in each group on day 44 at intraperitoneal dose of 1.50 mg/kg; type: functional; settings: dose 1.5 mg/kg
Mus musculus [3] = assay: Tested for antiinflammatory activity on mouse type II collagen arthritis as Paw swelling of all animals in each group on day 23 at intraperitoneal dose of 0.75 mg/kg; type: functional
Mus musculus [4] = assay: Tested for antiinflammatory activity on mouse type II collagen arthritis as Paw swelling of all animals in each group on day 37 at intraperitoneal dose of 0.75 mg/kg; type: functional
Mus musculus [5] = assay: Incidence of disease (mouse type II collagen) was scored as the percentage of animals within each experimental group that exhibited joint or limb inflammation on day 23 at intraperitoneal dose of 1.5 mg/kg; type: functional
Mus musculus [6] = assay: Incidence of disease (mouse type II collagen) was scored as the percentage of animals within each experimental group that exhibited joint or limb inflammation on day 37 at intraperitoneal dose of 0.75 mg/kg; type: functional
Mus musculus [7] = assay: Tested for antiinflammatory activity on mouse type II collagen arthritis as Paw swelling of all animals in each group on day 30 at intraperitoneal dose of 1.50 mg/kg; type: functional; settings: dose 1.5 mg/kg
Mus musculus [8] = assay: Incidence of disease (mouse type II collagen) was scored as the percentage of animals within each experimental group that exhibited joint or limb inflammation on day 37 at intraperitoneal dose of 1.5 mg/kg; type: functional
Mus musculus [9] = assay: Incidence of disease (mouse type II collagen) was scored as the percentage of animals within each experimental group that exhibited joint or limb inflammation on day 30 at intraperitoneal dose of 0.75 mg/kg; type: functional
Mus musculus [10] = assay: Tested for antiinflammatory activity on mouse type II collagen arthritis as Paw swelling of all animals in each group on day 23 at intraperitoneal dose of 1.50 mg/kg; type: functional; settings: dose 1.5 mg/kg
Mus musculus [11] = assay: Incidence of disease (mouse type II collagen) was scored as the percentage of animals within each experimental group that exhibited joint or limb inflammation on day 44 at intraperitoneal dose of 1.5 mg/kg; type: functional
Mus musculus [12] = assay: Tested for antiinflammatory activity on mouse type II collagen arthritis as Paw swelling of all animals in each group on day 44 at intraperitoneal dose of 0.75 mg/kg; type: functional
Mus musculus [13] = assay: Incidence of disease (mouse type II collagen) was scored as the percentage of animals within each experimental group that exhibited joint or limb inflammation on day 23 at intraperitoneal dose of 0.75 mg/kg; type: functional
Mus musculus [14] = assay: Tested for antiinflammatory activity on mouse type II collagen arthritis as Paw swelling of all animals in each group on day 30 at intraperitoneal dose of 0.75 mg/kg; type: functional
Mus musculus [15] = assay: Tested for antiinflammatory activity on mouse type II collagen arthritis as Paw swelling of all animals in each group on day 37 at intraperitoneal dose of 1.50 mg/kg; type: functional; settings: dose 1.5 mg/kg
Mus musculus [16] = assay: Incidence of disease (mouse type II collagen) was scored as the percentage of animals within each experimental group that exhibited joint or limb inflammation on day 44 at intraperitoneal dose of 0.75 mg/kg; type: functional
Mus musculus [17] = assay: Tested for antiinflammatory activity on mouse type II collagen arthritis as Paw swelling of all animals in each group on day 30 at intraperitoneal dose of 6 mg/kg; type: functional
Mus musculus [18] = assay: Incidence of disease (mouse type II collagen) was scored as the percentage of animals within each experimental group that exhibited joint or limb inflammation on day 44 at intraperitoneal dose of 0.38 mg/kg; type: functional
Mus musculus [19] = assay: Tested for antiinflammatory activity on mouse type II collagen arthritis as Paw swelling of all animals in each group on day 30 at intraperitoneal dose of 0.38 mg/kg; type: functional
Mus musculus [20] = assay: Tested for antiinflammatory activity on mouse type II collagen arthritis as Paw swelling of all animals in each group on day 23 at intraperitoneal dose of 6 mg/kg; type: functional
Mus musculus [21] = assay: Incidence of disease (mouse type II collagen) was scored as the percentage of animals within each experimental group that exhibited joint or limb inflammation on day 44 at intraperitoneal dose of 6 mg/kg; type: functional
Mus musculus [22] = assay: Tested for antiinflammatory activity on mouse type II collagen arthritis as Paw swelling of all animals in each group on day 23 at intraperitoneal dose of 1.5 mg/kg; type: functional
Mus musculus [23] = assay: Incidence of disease (mouse type II collagen) was scored as the percentage of animals within each experimental group that exhibited joint or limb inflammation on day 23 at intraperitoneal dose of 6 mg/kg; type: functional
Mus musculus [24] = assay: Incidence of disease (mouse type II collagen) was scored as the percentage of animals within each experimental group that exhibited joint or limb inflammation on day 30 at intraperitoneal dose of 0.38 mg/kg; type: functional
Mus musculus [25] = assay: Incidence of disease (mouse type II collagen) was scored as the percentage of animals within each experimental group that exhibited joint or limb inflammation on day 37 at intraperitoneal dose of 6 mg/kg; type: functional
Mus musculus [26] = assay: Tested for antiinflammatory activity on mouse type II collagen arthritis as Paw swelling of all animals in each group on day 37 at intraperitoneal dose of 3 mg/kg; type: functional
Mus musculus [27] = assay: Tested for antiinflammatory activity on mouse type II collagen arthritis as Paw swelling of all animals in each group on day 44 at intraperitoneal dose of 0.38 mg/kg; type: functional
Mus musculus [28] = assay: Tested for antiinflammatory activity on mouse type II collagen arthritis as Paw swelling of all animals in each group on day 37 at intraperitoneal dose of 0.38 mg/kg; type: functional
Mus musculus [29] = assay: Incidence of disease (mouse type II collagen) was scored as the percentage of animals within each experimental group that exhibited joint or limb inflammation on day 30 at intraperitoneal dose of 6 mg/kg; type: functional
Mus musculus [30] = assay: Incidence of disease (mouse type II collagen) was scored as the percentage of animals within each experimental group that exhibited joint or limb inflammation on day 37 at intraperitoneal dose of 3 mg/kg; type: functional
Mus musculus [31] = assay: Tested for antiinflammatory activity on mouse type II collagen arthritis as Paw swelling of all animals in each group on day 23 at intraperitoneal dose of 0.38 mg/kg; type: functional
Mus musculus [32] = assay: Tested for antiinflammatory activity on mouse type II collagen arthritis as Paw swelling of all animals in each group on day 44 at intraperitoneal dose of 1.5 mg/kg; type: functional
Mus musculus [33] = assay: Incidence of disease (mouse type II collagen) was scored as the percentage of animals within each experimental group that exhibited joint or limb inflammation on day 44 at intraperitoneal dose of 3 mg/kg; type: functional
[34] = Concentration required to inhibit the growth of chang liver cells.; type: functional; settings: Homo sapiens
Mus musculus [35] = assay: Tested for antiinflammatory activity on mouse type II collagen arthritis as Paw swelling of all animals in each group on day 37 at intraperitoneal dose of 1.5 mg/kg; type: functional
Mus musculus [36] = assay: Incidence of disease (mouse type II collagen) was scored as the percentage of animals within each experimental group that exhibited joint or limb inflammation on day 23 at intraperitoneal dose of 3 mg/kg; type: functional
Mus musculus [37] = assay: Incidence of disease (mouse type II collagen) was scored as the percentage of animals within each experimental group that exhibited joint or limb inflammation on day 23 at intraperitoneal dose of 0.38 mg/kg; type: functional
Mus musculus [38] = assay: Tested for antiinflammatory activity on mouse type II collagen arthritis as Paw swelling of all animals in each group on day 30 at intraperitoneal dose of 3 mg/kg; type: functional
Mus musculus [39] = assay: Incidence of disease (mouse type II collagen) was scored as the percentage of animals within each experimental group that exhibited joint or limb inflammation on day 37 at intraperitoneal dose of 0.38 mg/kg; type: functional
Mus musculus [40] = assay: Tested for antiinflammatory activity on mouse type II collagen arthritis as Paw swelling of all animals in each group on day 44 at intraperitoneal dose of 3 mg/kg; type: functional
Mus musculus [41] = assay: Tested for antiinflammatory activity on mouse type II collagen arthritis as Paw swelling of all animals in each group on day 44 at intraperitoneal dose of 6 mg/kg; type: functional
Mus musculus [42] = assay: Tested for antiinflammatory activity on mouse type II collagen arthritis as Paw swelling of all animals in each group on day 37 at intraperitoneal dose of 6 mg/kg; type: functional
L1210 = assay: Concentration required to inhibit the growth of L1210 cells.; type: functional, cell-based; settings: Mus musculus
Mus musculus [43] = assay: Incidence of disease (mouse type II collagen) was scored as the percentage of animals within each experimental group that exhibited joint or limb inflammation on day 30 at intraperitoneal dose of 3 mg/kg; type: functional
Mus musculus [44] = assay: Tested for antiinflammatory activity on mouse type II collagen arthritis as Paw swelling of all animals in each group on day 23 at intraperitoneal dose of 3 mg/kg; type: functional
Mus musculus [45] = assay: Tested for antiinflammatory activity on mouse type II collagen arthritis as Paw swelling of all animals in each group on day 30 at intraperitoneal dose of 1.5 mg/kg; type: functional
Mus musculus [46] = assay: Incidence of disease (mouse type II collagen) was scored as the percentage of animals within each experimental group that exhibited joint or limb inflammation on day 44 at intraperitoneal dose of 8 mg/kg; type: functional
Mus musculus [47] = assay: Tested for antiinflammatory activity on mouse type II collagen arthritis as Paw swelling of all animals in each group on day 30 at intraperitoneal dose of 8 mg/kg; type: functional
Mus musculus [48] = assay: Incidence of disease (mouse type II collagen) was scored as the percentage of animals within each experimental group that exhibited joint or limb inflammation on day 30 at intraperitoneal dose of 8 mg/kg; type: functional
Mus musculus [49] = assay: Tested for antiinflammatory activity on mouse type II collagen arthritis as Paw swelling of all animals in each group on day 37 at intraperitoneal dose of 8 mg/kg; type: functional
Mus musculus [50] = assay: Tested for antiinflammatory activity on mouse type II collagen arthritis as Paw swelling of all animals in each group on day 23 at intraperitoneal dose of 8 mg/kg; type: functional
Mus musculus [51] = assay: Incidence of disease (mouse type II collagen) was scored as the percentage of animals within each experimental group that exhibited joint or limb inflammation on day 37 at intraperitoneal dose of 8 mg/kg; type: functional
Mus musculus [52] = assay: Incidence of disease (mouse type II collagen) was scored as the percentage of animals within each experimental group that exhibited joint or limb inflammation on day 23 at intraperitoneal dose of 8 mg/kg; type: functional
Mus musculus [53] = assay: Tested for antiinflammatory activity on mouse type II collagen arthritis as Paw swelling of all animals in each group on day 44 at intraperitoneal dose of 8 mg/kg; type: functional

## Nc1nc(N)c2cc(CNc3ccc(C(=O)NC(CCC(=O)O)C(=O)O)cc3)cnc2n1 (stereo unspecified)
Mus musculus [1]
  Animals: 12%
Mus musculus [2]
  Paw swelling: 2.21 mm
Mus musculus [3]
  Paw swelling: 2.14 mm
Mus musculus [4]
  Paw swelling: 2.23 mm
Mus musculus [5]
  Animals: 0%
Mus musculus [6]
  Animals: 38%
Mus musculus [7]
  Paw swelling: 2.16 mm
Mus musculus [8]
  Animals: 12%
Mus musculus [9]
  Animals: 12%
Mus musculus [10]
  Paw swelling: 2.1 mm
Mus musculus [11]
  Animals: 25%
Mus musculus [12]
  Paw swelling: 2.28 mm
Mus musculus [13]
  Animals: 0%
Mus musculus [14]
  Paw swelling: 2.19 mm
Mus musculus [15]
  Paw swelling: 2.17 mm
Mus musculus [16]
  Animals: 62%

## CCCc1c(CNc2ccc(C(=O)NC(CCC(=O)O)C(=O)O)cc2)cnc2nc(N)nc(N)c12 (stereo unspecified)
Mus musculus [17]
  Paw swelling: 2.23 mm
Mus musculus [18]
  Animals: 88%
Mus musculus [1]
  Animals: 0%
Mus musculus [19]
  Paw swelling: 2.13 mm
Mus musculus [3]
  Paw swelling: 2.13 mm
Mus musculus [20]
  Paw swelling: 2.13 mm
Mus musculus [4]
  Paw swelling: 2.16 mm
Mus musculus [21]
  Animals: 0%
Mus musculus [22]
  Paw swelling: 2.12 mm
Mus musculus [23]
  Animals: 0%
Mus musculus [5]
  Animals: 0%
Mus musculus [24]
  Animals: 0%
Mus musculus [6]
  Animals: 0%
Mus musculus [8]
  Animals: 0%
Mus musculus [9]
  Animals: 0%
Mus musculus [25]
  Animals: 25%
Mus musculus [26]
  Paw swelling: 2.23 mm
Mus musculus [27]
  Paw swelling: 2.57 mm
Mus musculus [28]
  Paw swelling: 2.22 mm
Mus musculus [29]
  Animals: 25%
Mus musculus [30]
  Animals: 14%
Mus musculus [11]
  Animals: 0%
Mus musculus [12]
  Paw swelling: 2.22 mm
Mus musculus [31]
  Paw swelling: 2.11 mm
Mus musculus [13]
  Animals: 0%
Mus musculus [32]
  Paw swelling: 2.15 mm
Mus musculus [14]
  Paw swelling: 2.17 mm
Mus musculus [33]
  Animals: 29%
[34]
  IC50: 8.2 nM
Mus musculus [35]
  Paw swelling: 2.19 mm
Mus musculus [36]
  Animals: 0%
Mus musculus [37]
  Animals: 0%
Mus musculus [38]
  Paw swelling: 2.24 mm
Mus musculus [39]
  Animals: 75%
Mus musculus [40]
  Paw swelling: 2.2 mm
Mus musculus [41]
  Paw swelling: 2.11 mm
Mus musculus [42]
  Paw swelling: 2.22 mm
Mus musculus [16]
  Animals: 50%
L1210
  IC50: 6.5 nM
Mus musculus [43]
  Animals: 14%
Mus musculus [44]
  Paw swelling: 2.12 mm
Mus musculus [45]
  Paw swelling: 2.14 mm

## Nc1nc(N)c2cc(CCc3ccc(C(=O)NC(CCC(=O)O)C(=O)O)s3)cnc2n1 (stereo unspecified)
Mus musculus [46]
  Animals: 88%
Mus musculus [47]
  Paw swelling: 2.19 mm
Mus musculus [48]
  Animals: 25%
Mus musculus [49]
  Paw swelling: 2.6 mm
Mus musculus [50]
  Paw swelling: 2.13 mm
Mus musculus [51]
  Animals: 88%
Mus musculus [52]
  Animals: 0%
Mus musculus [53]
  Paw swelling: 2.63 mm
